Measured values reported in US11999720B2, “Pyrazolylacylpyrazoline compounds and method for treating pain” (THE TRUSTEES OF INDIANA UNIVERSITY, priority 2018, dated 2024).

How the values were obtained:
[1] = tested on: T1, CaV2.2 channels in HEK-CaV2.2 cells (Rattus norvegicus); assay: whole cell patch-clamp, CaV2.2 currents in HEK-CaV2.2 cells; format: cell-based
T1 construct: expressed in transfected cells
Experimental: The G-V curves are shown.
HEK-CaV2.2 cells were pretreated with various concentrations of compound 14 for 48 hours. CaV2.2 currents were acquired during 20-ms depolarizing pulses, and the current densities were calculated as a ratio of the peak current amplitude and each cell capacitance (0.1 μM, n=6; 1 μM, n=7; 10 μM, n=8; 50 μM, n=12). The line is the fit of the data to the four-parameter logistic function.
EK-CaV2.2 cells were pretreated with the indicated compounds for 48 hours. *** corresponds to […].
FIGS. 8 and 9 show the effects of 2 and 14 on the voltage dependence of activation of CaV2.2 channels in HEK-CaV2.2 cells pretreated with the vehicle or the indicated compounds for 48 hours. […] The gray vertical lines are the error bars (S.E.M.).
FIGS. 10 and 11 show acute effects of DMSO and 14 on the voltage dependence of activation of CaV2.2 channels in HEK-CaV2.2 cells. […] The gray vertical lines are the error bars (S.E.M.). “ns”—stands for not significant.
(§1) The whole cell patch-clamp technique was used to record CaV2.2 currents in HEK-CaV2.2 cells and rat DRG neurons. HEK293 cells that stably expressed rat N-type CaV2.2α1B, rat CaVβ3, and rat […] were utilized. Cells were grown in Dulbecco's modified Eagle's medium (DMEM) supplemented with 10% FBS, 50 units penicillin, 50 μg/ml streptomycin, 5 μg/ml blasticidin, 5 μg/ml hydromycin and 25 μg/ml zeozin at 37° C. in a humidified atmosphere of 95% air and 5% CO2. For patch clamp experiments, HEK-CaV2.2 cells were plated on glass coverslips and were cultured for 24-48 h. All animal procedures were performed in accordance to the NIH guide and were approved by the Indiana University School of Medicine Institutional Animal Care and Use Committee. Young adult Sprague Dawley rats were anesthetized (3% isoflurane) and then decapitated. The spinal column was removed, cut open, and dorsal root ganglia were harvested from the Lumbar L4-L6 vertebral levels. The ganglia were incubated in DMEM containing collagenase (1 mg/ml, Worthington: LS04194) and protease (1 mg/ml, Worthington: LS02104) for 30-60 minutes, and DRG neurons were dissociated by triturating in DMEM supplemented with 10% FBS. The isolated DRG neurons were plated on glass coverslips coated with growth factor reduced Matrigel (Thermo Fisher Scientific, Waltham, MA) and were cultured in Eagle's minimum essential medium (Invitrogen, CA) supplemented with 0.2% BSA and 20 ng/ml NGF-2.5S (BD Biosciences, Bedford, MA) at 37° C. in a water-jacketed 5% CO2 incubator overnight for the patch-clamp experiments.

[2] = tested on: acute thermal nociception in the rat; assay: acute thermal nociception in the rat (Hargreaves' plantar test); format: in vivo; details: for paw withdrawal latency (PWL), analgesic effect: rats, n=6 per group, FIG. 12
Experimental: Pathogen-free, adult, female Sprague Dawley (weight at testing 150-200 g; Harlan-Sprague-Dawley, Indianapolis, IN) were housed in a climate-controlled room on a 12-hour light/dark cycle and were allowed to have food and water ad libitum. All procedures were approved by the Indiana University Animal Care and Use Committee and conformed to the guidelines of the National Institutes of Health (publication no. 80-23, 1966) for the use of laboratory animals. All behavioral experiments were conducted by experimenters blinded to the treatment conditions and compound identity. The experiments were replicated a minimum of 2 times with independent cohorts of animals. For in vivo studies, the inventive compounds were freshly prepared saline (0.9%) on the day of the experiment. […] Louis, MO) was freshly prepared on the day of the experiment in saline. All drugs were dissolved in 1 mL solution and administered by intraperitoneal (i.p.) injections 1 h prior to all behavioral assays. To evaluate the PWT to thermal stimulation, the Hargreaves' plantar test apparatus (Ugo Basile, Varese, Italy) was used. Measurements of the withdrawal latency of the paw began after the rats were habituated to the testing environment (IR setting=70). The measurements were repeated four times, at 5 min intervals and the initial pair of measurements was not used. The averages of the three remaining pairs of measurements taken were employed as data. A model of behavioral sensitivity using thermal stimulus was used to determine the acute analgesic properties of the compounds of the present invention.

[3] = tested on: tibial nerve injury (TNI) model of neuropathic pain; assay: tibial nerve injury (TNI) model of neuropathic pain, von Frey withdrawal threshold; format: in vivo, rat; details: for withdrawal threshold to von Frey stimulation: 1 h, 28 days after TNI, before dosing 33.1±5.9, pre-surgery 68.7±3.7
Experimental: Pathogen-free, adult, female Sprague Dawley (weight at testing 150-200 g; Harlan-Sprague-Dawley, Indianapolis, IN) were housed in a climate-controlled room on a 12-hour light/dark cycle and were allowed to have food and water ad libitum. All procedures were approved by the Indiana University Animal Care and Use Committee and conformed to the guidelines of the National Institutes of Health (publication no. 80-23, 1966) for the use of laboratory animals. All behavioral experiments were conducted by experimenters blinded to the treatment conditions and compound identity. The experiments were replicated a minimum of 2 times with independent cohorts of animals.
For in vivo studies, the inventive compounds were freshly prepared saline (0.9%) on the day of the experiment. Morphine sulfate salt (Sigma-Aldrich, St. Louis, MO) was freshly prepared on the day of the experiment in saline. […]
The inventive compounds were assessed with the tibial nerve injury (TNI) model of neuropathic pain 28 days after surgery. Using isoflurane anesthesia (4% induction and 2% maintenance), the right sciatic nerve was isolated under aseptic surgical conditions by blunt dissection of the femoral biceps muscle and the tibial nerve was tightly ligated with 5-0 silk and transected distal to the ligation. Additional 2 to 3 mm of distal nerve stump was removed to prevent reinnervation by the proximal nerve. The overlying muscle and skin was then sutured in 2 separate layers. Sham-injured animals were subjected to all preceding procedures with the exception of ligation and transection. All animals were returned to the housing facility and allowed to survive for 28 d. Mechanical stimuli were applied with 7 filaments, each differing in the bending force delivered (10, 20, 40, 60, 80, 100, and 120 mN), and fitted with a flat tip and fixed diameter of 0.2 mm. The filaments were tested in the order of ascending force, with each filament delivered for 1 second. Withdrawal threshold was determined by sequentially increasing and analyzed with Hill equation was fitted to the function (Origin version 6.0; Microcal Software) relating the percentage of indentations eliciting a withdrawal to the force of indentation.

CaVα1CaVβ3 interaction = target: T2, CaVα1CaVβ3 interaction (Rattus norvegicus, UniProt P54287); assay: fluorescence polarization assay, inhibition constant; format: binding; details: fluorescence polarization assay
T2 construct: made in house; host or cells: E. coli BL21(DE3)
T2 sequence (P54287 whole entry): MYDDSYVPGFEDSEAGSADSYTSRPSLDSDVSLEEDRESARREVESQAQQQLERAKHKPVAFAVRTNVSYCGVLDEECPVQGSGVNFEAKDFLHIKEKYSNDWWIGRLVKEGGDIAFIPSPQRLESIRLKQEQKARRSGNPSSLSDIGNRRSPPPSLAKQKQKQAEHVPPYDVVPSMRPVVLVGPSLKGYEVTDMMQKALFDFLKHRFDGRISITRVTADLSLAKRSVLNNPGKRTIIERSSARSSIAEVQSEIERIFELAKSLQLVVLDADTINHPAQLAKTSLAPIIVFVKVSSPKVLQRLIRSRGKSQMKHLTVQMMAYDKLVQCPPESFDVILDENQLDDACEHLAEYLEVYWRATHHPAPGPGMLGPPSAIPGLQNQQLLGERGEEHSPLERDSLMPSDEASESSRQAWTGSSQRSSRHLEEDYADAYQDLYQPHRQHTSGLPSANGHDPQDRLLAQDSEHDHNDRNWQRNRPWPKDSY
Experimental: (§2) The plasmid of pET28a-CaV2.2β3 subunit was transformed into competent E. Coli BL21(DE3) strain. Culture was grown in LB medium at 37° C. to an OD600 of approximately 0.6 and then induced with 0.5 mM IPTG at 16° C. for 16 h. Cells were collected by centrifugation and lysed by microfluidizer in lysis buffer (phosphate buffer, pH 7.6, 2 mM DTT). The His-CaVβ3 protein was purified at 4° C. using Ni-IMAC chromatography (His-Trap HP, GE Healthcare) and eluted with 500 mM imidazole in lysis buffer with a gradient method. After the fractions consisted of His-CaVβ3 was combined and concentrated, the protein was further purified using size exclusion chromatography (Superdex 200 pg, GE Healthcare) in PBS with 2 mM DTT.
(§3) Compound 6 forms a salt bridge interaction with Arg-307 through a benzoic acid moiety. […] Arg-307 was mutated to alanine.

CaVβ3 = target: T3, CaVβ3 (Rattus norvegicus, UniProt P54287); assay: label-free microscale thermophoresis (MST), direct binding; details: direct binding to CaVβ3, read-out: dissociation constant (Kd)
T3 construct: made in house; host or cells: E. coli BL21(DE3)
T3 sequence (P54287 whole entry): as above
Experimental: Curve fitting analysis led to a dissociation constant of 3.6±1.1 μM.
as §2
Direct binding of compound 6 to CaVβ3 was confirmed with label-free microscale thermophoresis (MST).

CaVβ3 Arg-307-Ala = target: T4, CaVβ3 Arg-307-Ala (Rattus norvegicus, UniProt P54287, R307A); assay: site-directed mutagenesis: displacement of fluorescently-labeled CaVα1-AID bound to mutated CaVβ3; format: binding
T4 construct: His; made in house
T4 sequence (P54287 whole entry R307A): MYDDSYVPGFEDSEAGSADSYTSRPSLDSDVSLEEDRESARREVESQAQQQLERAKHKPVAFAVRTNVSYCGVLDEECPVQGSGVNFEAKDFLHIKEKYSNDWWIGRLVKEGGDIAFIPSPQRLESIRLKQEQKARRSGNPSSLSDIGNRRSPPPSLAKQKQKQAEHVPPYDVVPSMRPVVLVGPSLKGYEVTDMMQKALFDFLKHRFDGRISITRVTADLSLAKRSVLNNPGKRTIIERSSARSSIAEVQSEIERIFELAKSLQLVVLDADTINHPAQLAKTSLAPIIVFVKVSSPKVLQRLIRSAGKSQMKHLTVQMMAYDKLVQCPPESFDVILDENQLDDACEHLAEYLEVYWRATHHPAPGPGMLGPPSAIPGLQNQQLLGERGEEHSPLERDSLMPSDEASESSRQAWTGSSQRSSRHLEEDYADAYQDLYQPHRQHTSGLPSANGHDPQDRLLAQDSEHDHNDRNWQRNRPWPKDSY
Text: as §3

[4] = target: T5, CaV2.2 currents in rat DRG neurons (Rattus norvegicus, UniProt Q02294); assay: whole cell patch-clamp, CaV2.2 currents in rat DRG neurons; format: cell-based; details: 50 μM acute
T5 construct: from tissue; host or cells: dissociated dorsal root ganglion neurons (L4-L6) of young adult Sprague Dawley rats
T5 sequence (P54287 whole entry partner): as the sequence (P54287 whole entry) above
T5 sequence (Q02294 whole entry): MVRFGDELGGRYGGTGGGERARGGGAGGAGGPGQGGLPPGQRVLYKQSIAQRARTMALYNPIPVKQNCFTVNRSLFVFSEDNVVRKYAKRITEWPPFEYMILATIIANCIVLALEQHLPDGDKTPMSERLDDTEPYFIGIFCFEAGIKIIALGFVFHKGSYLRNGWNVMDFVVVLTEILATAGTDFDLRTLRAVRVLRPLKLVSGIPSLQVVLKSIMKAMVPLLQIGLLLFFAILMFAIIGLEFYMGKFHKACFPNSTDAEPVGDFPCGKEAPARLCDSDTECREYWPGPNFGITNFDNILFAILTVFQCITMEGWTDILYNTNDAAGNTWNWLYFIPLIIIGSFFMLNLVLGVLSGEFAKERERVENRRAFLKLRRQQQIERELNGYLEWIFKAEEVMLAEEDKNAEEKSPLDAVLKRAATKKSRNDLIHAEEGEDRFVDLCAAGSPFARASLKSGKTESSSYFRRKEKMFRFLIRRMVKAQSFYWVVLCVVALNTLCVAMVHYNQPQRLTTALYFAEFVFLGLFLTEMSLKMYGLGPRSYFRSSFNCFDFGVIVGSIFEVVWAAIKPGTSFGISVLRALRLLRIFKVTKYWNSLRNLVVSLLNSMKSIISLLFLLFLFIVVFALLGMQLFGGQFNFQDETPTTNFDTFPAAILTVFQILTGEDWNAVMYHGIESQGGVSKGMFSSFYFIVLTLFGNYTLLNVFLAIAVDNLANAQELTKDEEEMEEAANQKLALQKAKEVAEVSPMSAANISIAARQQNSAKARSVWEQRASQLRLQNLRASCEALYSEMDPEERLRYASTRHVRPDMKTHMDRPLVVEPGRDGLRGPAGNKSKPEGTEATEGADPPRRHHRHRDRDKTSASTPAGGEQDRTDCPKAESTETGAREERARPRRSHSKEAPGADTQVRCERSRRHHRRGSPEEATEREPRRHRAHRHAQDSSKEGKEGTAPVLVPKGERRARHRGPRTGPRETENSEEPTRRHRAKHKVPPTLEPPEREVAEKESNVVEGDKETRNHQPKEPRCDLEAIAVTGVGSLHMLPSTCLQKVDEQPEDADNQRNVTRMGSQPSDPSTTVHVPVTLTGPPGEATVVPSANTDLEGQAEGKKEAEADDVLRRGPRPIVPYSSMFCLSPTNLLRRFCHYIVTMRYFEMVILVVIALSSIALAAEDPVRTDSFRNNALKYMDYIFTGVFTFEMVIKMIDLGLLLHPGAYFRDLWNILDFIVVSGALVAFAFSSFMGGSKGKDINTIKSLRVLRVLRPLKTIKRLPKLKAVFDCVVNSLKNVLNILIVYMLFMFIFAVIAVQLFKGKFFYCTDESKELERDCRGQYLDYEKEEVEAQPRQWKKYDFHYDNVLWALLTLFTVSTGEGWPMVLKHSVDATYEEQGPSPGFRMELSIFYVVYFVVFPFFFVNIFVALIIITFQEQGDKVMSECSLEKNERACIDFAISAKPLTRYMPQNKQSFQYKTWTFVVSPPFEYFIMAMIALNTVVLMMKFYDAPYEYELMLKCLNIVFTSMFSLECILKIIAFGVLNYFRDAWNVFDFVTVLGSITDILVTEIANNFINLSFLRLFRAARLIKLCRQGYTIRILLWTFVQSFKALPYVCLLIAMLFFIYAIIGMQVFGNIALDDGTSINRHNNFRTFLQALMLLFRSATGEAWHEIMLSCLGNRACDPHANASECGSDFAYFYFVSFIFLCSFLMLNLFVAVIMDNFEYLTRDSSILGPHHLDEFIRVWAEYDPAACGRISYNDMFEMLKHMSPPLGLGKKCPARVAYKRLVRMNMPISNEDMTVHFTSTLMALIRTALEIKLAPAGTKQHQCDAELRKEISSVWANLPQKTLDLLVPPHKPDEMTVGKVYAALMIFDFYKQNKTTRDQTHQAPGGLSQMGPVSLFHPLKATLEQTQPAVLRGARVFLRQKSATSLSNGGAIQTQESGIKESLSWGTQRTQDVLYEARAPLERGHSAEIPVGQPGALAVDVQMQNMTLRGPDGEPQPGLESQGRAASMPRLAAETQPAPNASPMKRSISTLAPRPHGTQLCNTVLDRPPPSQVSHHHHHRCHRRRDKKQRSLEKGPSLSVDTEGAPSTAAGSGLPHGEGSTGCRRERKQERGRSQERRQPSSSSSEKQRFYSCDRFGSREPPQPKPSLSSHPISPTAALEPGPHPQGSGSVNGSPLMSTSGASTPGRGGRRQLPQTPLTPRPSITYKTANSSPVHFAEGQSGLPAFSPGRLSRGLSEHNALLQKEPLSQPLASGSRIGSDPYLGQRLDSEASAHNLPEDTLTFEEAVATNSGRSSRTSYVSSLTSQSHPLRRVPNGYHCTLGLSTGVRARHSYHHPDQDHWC
Experimental: as §1, with “The isolated DRG neurons were plated on glass coverslips coated with growth factor reduced Matrigel (Thermo Fisher Scientific, Waltham, MA) and were cultured in Eagle's minimum essential medium (Invitrogen, CA) supplemented with 0.2% BSA and 20 ng/ml NGF-2.5S (BD Biosciences, Bedford, MA) at 37° C. in a water-jacketed 5% CO2 incubator overnight for the patch-clamp experiments.” left out

T1 sequence (P54287 whole entry): as the sequence (P54287 whole entry) above

SMILES	steady-state inactivation V0.5, inact ([1]; 50 μM, pretreated 48 hours) [mV]	density of CaV2.2 currents ([1]; 50 μM, pretreated 48 hours, depolarizing pulses to 0 mV from holding potential −80 mV, DMSO −74.8±7.0) [pA/pF]	mean half-activation potential V0.5, act ([1]; pretreated 48 hours, DMSO 8.7±1.1) [mV]	effect on CaV2.2 currents amplitudes ([1]; used acutely or as a long-term treatment, HEK-CaV2.2 cells)	paw withdrawal latency (PWL), analgesic effect [2]	withdrawal threshold to von Frey stimulation ([3]; 10 mg/kg ip) [mN]	Ki (CaVα1CaVβ3 interaction) [nM]	Kd (CaVβ3) [nM]	inhibition of the protein-protein interaction with CaVβ3 Arg-307-Ala (displacement of fluorescently-labeled CaVα1-AID) (CaVβ3 Arg-307-Ala)	effect on CaV2.2 currents, acute application ([1]; 50 μM acute, HEK-CaV2.2 cells)	CaV2.2 current density ([1]; 50 μM, pretreated 48 hours, DMSO −98.0±12.5) [pA/pF]	mean half-activation potential ([1]; pretreated 48 hours (50 μM per FIG. 4), DMSO 6.7±0.6) [mV]	effect on CaV2.2 currents, acute application [4]	response latency to thermal stimulus ([2]; systemic administration, 1 or 10 mg/kg)	effect on behavior (tactile hypersensitivity) ([3]; 1 mg/kg and 0.1 mg/kg, at 1 or 4 hours)	attenuation of tactile hypersensitivity at 4 h ([3]; 10 mg/kg ip, 4 h after administration)	duration of reversal of mechanical hypersensitivity ([3]; 10 mg/kg, 4 weeks after TNI)
COc1ccc(C2=NN(C(=O)CCC(C)=O)C(c3cn(-c4ccccc4)nc3-c3ccc(C)cc3)C2)cc1 (stereo not shown) [Compound 2, 1-(5-(4-methoxyphenyl)-1′-phenyl-3′-(p-tolyl)-3,4-dihydro-1′H,2H-[3,4′-bipyrazol]-2-yl)pentane-1,4-dione]	−61.6±2.0	−79.2±8.2	8.5±1.4	did not affect	lack of analgesic effect	32±2.6											
COc1ccc(C2=NN(C(=O)c3cccc(C(=O)O)c3)C(c3cn(-c4ccccc4)nc3-c3ccc(C)cc3)C2)cc1 (stereo not shown) [Compound 6, 3-(5-(4-methoxyphenyl)-1′-phenyl-3′-(p-tolyl)-3,4-dihydro-1′H,2H-[3,4′-bipyrazole]-2-carbonyl)benzoic acid]					lack of analgesic effect	62.2±3.1	1400 ± 100	3600 ± 1100	does not inhibit	did not affect	−28.7±5.0	9.4±1.2	did not affect	failed to elicit changes	did not alter behavior	not at 4 h	limited to 1 h
